Source: patent publication US11400082B2, “Methods of treating elevated plasma cholesterol” (Montréal Heart Institute, priority 2017, dated 2022)

Legend:
LDLR protein = experiment: Western blot analysis, relative quantification of LDLR protein levels; type: cell-based, human; conditions: overnight, hepatoma cells (HepG2, FIG. 13), normalized to actin, vehicle (DMSO) = 1
Protocol: For sterol-regulated conditions, HepG2 cells were incubated in 5% LPDS, 50 μM mevastatin, and 50 μM mevalonolactone in the absence (-sterols) or presence of 1 μg/ml 25-hydroxycholesterol and 10 μg/ml cholesterol (+sterols). For inhibitor treatments HepG2 cells were treated with DMSO or 10 μM compounds 2 in combination with U0126 (25 μM, catalog no. 9903, Cell Signaling Technology), Cycloheximide (CHX; 20 μg/ml, catalog no. C7698, Sigma-Aldrich), PD153035 (20 μM, catalog no. 14879, Cayman Chemical), bisindolylmaleimide I (BIM; 10 μM, catalog no. 13298, Cayman Chemical), H-89 (10 μM, catalog no. 10010556, Cayman Chemical), Dorsomorphin (5 μM, catalog no. 11967, Cayman Chemical) or 5-Azacytidine (10 μM, catalog no. A2385, Sigma-Aldrich).
Treated cells from Example 28 were washed three times in phosphate-buffered saline (PBS) and lysed in radioimmune precipitation assay buffer (50 mM Tris/HCl, pH 8.0, 1% (v/v) Nonidet P-40, 0.5% sodium deoxycholate, 150 mM NaCl, and 0.1% (v/v) SDS) supplemented with a complete protease inhibitor mixture (catalog no. 11 697 498 001, Roche Applied Science). Proteins were separated by 8% SDS polyacrylamide gel electrophoresis, blotted on nitrocellulose membranes (Bio-Rad), and blocked for 1 h in Tris-buffered saline-Tween 20 (TBS-T; 50 mM Tris-HCl, pH 7.5, 150 mM NaCl, 0.1% Tween 20) containing 5% nonfat dry milk. Membranes were then incubated overnight in TBS-T supplemented with 1% nonfat milk and the indicated antibodies; goat anti-human LDLR (1:1000; catalog no. AF2148, R&D Systems), rabbit anti-actin (1:5000; catalog no. A2066, Sigma-Aldrich). Appropriate HRP-conjugated secondary antibodies (1:10,000; GE healthcare) were used for detection using the Western Lightning Ultra chemiluminescence kit (catalog no. NEI112001EA, PerkinElmer Life Sciences) and BioFlex EC Films (catalog no. CLEC810, InterScience). Unsaturated films were numerized using the high resolution CanoScan 9000F scanner and corresponding bands were quantified using the ImageJ software (NIH). Relative quantification of LDLR protein levels were normalized to that of actin and compared to vehicle (DMSO) herein determined as 1.

C57BL/6 mice = experiment: Efficacy and safety in hypercholesterolemic animal models, C57BL/6 mice; type: in vivo
Protocol: (§1) For in vivo proof-of-concept animal studies, wild-type C57BL/6 male mice (˜25 g; obtained from Charles River Laboratories) or Golden Syrian (˜120 g obtained from Envigo++) were housed in the 12 hour light/12 hour dark cycle, temperature and humidity controlled MHI animal facility. […] TD.88137, Envigo) for 14 days. […] Equivalent volume of vehicle containing corresponding formulations were orally administered to mice daily and designated as placebo (vehicle). […] Total cholesterol (catalog no. 439-17501, Wako) was quantified in total plasma and in each 0.3 mL collected fractions or in-line (Lipidomics Core of The Group on Molecular and Cell Biology of Lipids, University of Alberta) according to the manufacturer's instructions. Relative quantitation of AUC of total cholesterol corresponding to non-HDL lipoprotein positive fractions obtained from FPLC profiles are included in Table 3. Serum aspartate aminotransferase (AST) and alanine transaminase (ALT) were measured by the Montreal Heart Institute biochemical clinical chemistry platform according to manufacturer's recommendations.

Golden Syrian = experiment: Efficacy and safety in hypercholesterolemic animal models, Golden Syrian; type: in vivo; conditions: 10 days
Protocol: as §1

[1] = Cell viability assay (MTT); type: cell-based; conditions: human; overnight incubation, viability relative to DMSO
Protocol: Following incubation, media was replaced and cells incubated for 4 h with 100 μL of phenol red-free DMEM containing 0.5 mg/mL of MTT (3-[4,5-dimethylthiazol-2-yl]-2,5-diphenyltetrazolium bromide; thiazolyl blue; catalog no. M5655, Sigma-Aldrich). Afterwards, media was removed and converted dye solubilized with 100 μL acidic isopropanol (0.06 N) and absorbance measured at a wavelength of 570 nm with background subtraction at 650 nm. Arbitrary units of cell viability of a given example were determined relative to equal volume of DMSO (vehicle) for each concentration used.

in vitro = conditions: pH 7.4; for -k: 1 μM; for half-life at 1 μM / microsomal CLint at 1 μM: microsomes
Protocol: Pooled human liver microsomes (HLM; Cat #X008067 lot IHG) and pooled male Sprague Dawley rat liver microsomes (RLM; Cat #M00001 Lot NNK) were purchased from BioreclamationIVT, Baltimore, Md. NADPH (Cat #N1630, 95% HPLC) and DMSO (GC grade) were purchased from Sigma-Aldrich, Canada. Potassium phosphate buffer (100 mM) with magnesium chloride pH 7.4 was prepared freshly. […] Reactions were initiated by adding NADPH (final concentration 1 mM) in all the wells. Reactions without NADPH were also incubated (final point only) to rule out non-NADPH metabolism or chemical instability in the incubation buffer. Reactions were terminated at each time point (0, 5, 10, 20, 30, 45 and 60 min) by transferring 50 μL in a new 96 well plate and adding 100 μl of acetonitrile containing an internal standard (labetalol at 2 μM). The plates were centrifuged at 4000 rpm for 5 min, and an aliquot of supernatant was diluted with one volume of water+0.1% formic acid before analysis by LC-MS/MS. Reference samples were also prepared at concentrations between 0.002 and 2 μM in buffer containing microsomes, by adding the diluted solutions of the compound to the buffer containing microsomes quenched with 2 volume of acetonitrile containing the internal standard (whereas the incubation T0 is obtained by quenching the microsomes containing the compound, then adding NADPH). Samples were monitored for parent compound disappearance in Multi Reaction Monitoring (MRM) mode using LC-MS/MS. The peak area ratios of analyte versus internal standard compared to the calibration curve were used to calculate concentration at each time point. The elimination constant (ke, min-1) was obtained from the log-linear regression of the concentration (y) versus time (t). The half-life was calculated as T½ (min)=0.693/ke. The microsomal intrinsic clearance (Clint, μL/min/mg of protein) was calculated by the following equation: […]

[2] = C57BL/6, HFD, 40 mpk/d, 10 days, animals out of n
[3] = HFD, 40 mpk/d, animals out of n

-k (in vitro; human): 0.000703 ± 1.9e-05 min⁻¹ | half-life at 1 μM (in vitro; human): 16.4 ± 0.45 h | microsomal CLint at 1 μM (in vitro; human): 1.17 ± 0.03 µL/min/mg | -k (in vitro; male, Sprague Dawley, rat): 0.00126 ± 0.00019 min⁻¹ | half-life at 1 μM (in vitro; male, Sprague Dawley, rat): 6.73 ± 0.467 h | microsomal CLint at 1 μM (in vitro; male, Sprague Dawley, rat): 6.19 ± 0.42 µL/min/mg
SMILES: O=C(NO)c1ncc(COc2ccc(F)cc2)c(CO)c1O [Compound 2, 5-(4-fluoro-phenoxymethyl)-3-hydroxy-4-hydroxymethyl-pyridine-2-carboxylic acid hydroxyamide]
LDLR Fold Change 10 nM (LDLR protein; 10 nM): 2 | LDLR Fold Change 10 μM (LDLR protein; 10 μM): 6.3 | LDL-C (%) (FPLC TC) (pooled plasma) (C57BL/6 mice; C57BL/6, Chow, 25 mpk/d oral gavage, 3 days, n 3): −31% | LDL-C (%) (FPLC TC) (pooled plasma) (C57BL/6 mice; C57BL/6, HFD, 5 mpk/d oral gavage, 10 days, n 4): −3 ± 8% | LDL-C (%) (FPLC TC) (pooled plasma) (C57BL/6 mice; C57BL/6, HFD, 25 mpk/d oral gavage, 10 days, n 4): −28 ± 8% | LDL-C (%) (FPLC TC) (pooled plasma) (C57BL/6 mice; C57BL/6, HFD, 40 mpk/d oral gavage, 10 days, n 4): −35 ± 2% | ALT (3 × ULN) (C57BL/6 mice; [2]): 0/4 | AST (3 × ULN) (C57BL/6 mice; [2]): 0/4 | LDL-C (%) (FPLC TC) (pooled plasma) (Golden Syrian; Chow, 40 mpk/d, n 3): −12% | LDL-C (%) (FPLC TC) (pooled plasma) (Golden Syrian; HFD, 5 mpk/d, n 3): −21 ± 10% | LDL-C (%) (FPLC TC) (pooled plasma) (Golden Syrian; HFD, 10 mpk/d, n 3): −15 ± 16% | LDL-C (%) (FPLC TC) (pooled plasma) (Golden Syrian; HFD, 20 mpk/d, n 3): −40 ± 7% | ALT (3 × ULN) (Golden Syrian; [3]): 0/3 | AST (3 × ULN) (Golden Syrian; [3]): 0/3 | LDL-C (%) (FPLC TC) (pooled plasma) (Golden Syrian; HFD, 40 mpk/d, n 3 (second HFD 40 mpk/d line)): −26 ± 12% | LDL-C (%) (FPLC TC) (pooled plasma) (Golden Syrian; HFD, 40 mpk/d, n 3, value marked (n = 1)): −47% | CC50 [1]: 50 µM
